From PMC11423540, “Synthesis and biological evaluation of ortho-phenyl phenylhydroxamic acids containing phenothiazine with improved selectivity for class IIa histone deacetylases” (Journal of Enzyme Inhibition and Medicinal Chemistry, 2024) come the findings set out here.

The IC50 is the concentration that gives 50% inhibition.

SMILES strings stand for the structures.

In assay [1] the test system is HDAC4 protein. The assay can be described thus: Surface plasmon resonance binding to HDAC4. As to conditions: Figure S1. Here is the method:
HDAC4 protein was crosslinked by EDC (1-ethyl-3-(3-dimethylaminopropyl) carbodiimide) and NHS (N-hydroxysuccinimide). The crosslinking reagent and protein were co- incubated 30 minutes at 25°C.
Binding reactivity to mutant HDAC4 protein was performed by SPR (OpenSPR, Nicoyalife). The recombinant HDAC4 protein was crosslinked by EDC/NHC regent, followed by dilution to a concentration of 50 μg/mL with PBS and immobilized onto a amine sensor chip (Nicoyalife). The analytes were tested at various dilutions in PBST, and the flow rate was maintained at 20 μL/min during analysis. The amine sensor chip was regenerated with 10 mM glycine−HCl, pH2.5. The results were analyzed using TraceDrawer software (Nicoyalife).
For orientation: SPR reads the build-up and loss of mass on a sensor chip optically.

Assay [2] relates to SCC2095 cells. The assay can be described thus: Cell viability (MTT) assay, SCC2095. In kind it is cell-based. As to conditions: Homo sapiens, 48 h, human oral cancer cells, read-out: IC50 of cytotoxicity SCC2095. Here is the method: Human breast cancer MDA-MB-231 cells and gastric cancer SCM-1 cells were purchased from the American Type Culture Collection (Manasas, VA, USA). SCC2095 human oral cancer cells were kindly provided by Professor Susan R. Mallery (The Ohio State University).
(§1) To assess cell viability, cells were seeded in three replicates into 96-well plates at a density of 5×10^3/well for 24 h following incubation with compounds at the indicated concentrations. Then, cell viability was assessed with 3–(4,5-dimethylthiazol-2-yl)-2,5-diphenyltetrazolium bromide (MTT) solution (0.5 mg/mL) for 4h as described previously. After removing the medium, 200 µL of DMSO was added, and then the absorbance was measured at 570 nm using a plate reader (BMG LABTECH, Germany).

For assay [3], the system named is SCM-1 cells. Nature of the assay: Cell viability (MTT) assay, SCM-1. In kind it is cell-based. As to conditions: human gastric cancer cells, read-out: IC50 of cytotoxicity SCM-1.
Excerpt: Human breast cancer MDA-MB-231 cells and gastric cancer SCM-1 cells were purchased from the American Type Culture Collection (Manasas, VA, USA). SCC2095 human oral cancer cells were kindly provided by Professor Susan R. Mallery (The Ohio State University). Normal human lung fibroblasts (NHLFs; CC-2512) were purchased from the Lonza (Walkersville, MD, USA). SCM-1 cells were maintained in RPMI-1640 medium (Invitrogen, Carlsbad, CA, USA); MDA-MB-231 and SCC2095 cells were maintained in DMEM/F12 (Invitrogen); and NHLFs were maintained in FGM™-2 medium (Lonza) with 2% serum, supplemented with 10% heat-inactivated foetal bovine serum (FBS; Gibco, Grand Island, NY, USA). All cells were cultured at 37 °C in a humidified incubator containing 5% CO2 and 95% relative humidity.
as §1

Assay [4] concerns SCC2095 cells. The assay can be described thus: Annexin V-FITC/PI flow cytometric apoptosis analysis. In kind it is cell-based, human. As to conditions: for apoptosis rate: 48 h. The method, then: (§2) Cells (2 × 10^5) were treated with tested compounds in 6-well plates for 24 h or 48 h, then washed with ice-cold PBS twice and harvested with trypsin. Cells were incubated with 5 µL Annexin V- FITC/PI (BD Pharmingen, San Diego) for 15 min in the dark condition. Then, the cells were measured by BD FACSCanto flow cytometer (BD, Franklin Lakes, NJ). For ROS determination, DMSO or H2O2 or compound 7 g-treated cells were stained with the ROS probe (DCFH-DA; 5 µM) and detected the DCFH-DA fluorescence.

In assay [5] the test system is SCC2095 cells. Nature of the assay: ROS determination by flow cytometry (DCFH-DA probe). In kind it is cell-based, human. Particulars: SCC2095, 12 h or 24 h. The method, then:
as §2

Assay [6] addresses T1, HDAC7 (Homo sapiens, UniProt Q8WUI4).
T1 sequence (Q8WUI4 1-952): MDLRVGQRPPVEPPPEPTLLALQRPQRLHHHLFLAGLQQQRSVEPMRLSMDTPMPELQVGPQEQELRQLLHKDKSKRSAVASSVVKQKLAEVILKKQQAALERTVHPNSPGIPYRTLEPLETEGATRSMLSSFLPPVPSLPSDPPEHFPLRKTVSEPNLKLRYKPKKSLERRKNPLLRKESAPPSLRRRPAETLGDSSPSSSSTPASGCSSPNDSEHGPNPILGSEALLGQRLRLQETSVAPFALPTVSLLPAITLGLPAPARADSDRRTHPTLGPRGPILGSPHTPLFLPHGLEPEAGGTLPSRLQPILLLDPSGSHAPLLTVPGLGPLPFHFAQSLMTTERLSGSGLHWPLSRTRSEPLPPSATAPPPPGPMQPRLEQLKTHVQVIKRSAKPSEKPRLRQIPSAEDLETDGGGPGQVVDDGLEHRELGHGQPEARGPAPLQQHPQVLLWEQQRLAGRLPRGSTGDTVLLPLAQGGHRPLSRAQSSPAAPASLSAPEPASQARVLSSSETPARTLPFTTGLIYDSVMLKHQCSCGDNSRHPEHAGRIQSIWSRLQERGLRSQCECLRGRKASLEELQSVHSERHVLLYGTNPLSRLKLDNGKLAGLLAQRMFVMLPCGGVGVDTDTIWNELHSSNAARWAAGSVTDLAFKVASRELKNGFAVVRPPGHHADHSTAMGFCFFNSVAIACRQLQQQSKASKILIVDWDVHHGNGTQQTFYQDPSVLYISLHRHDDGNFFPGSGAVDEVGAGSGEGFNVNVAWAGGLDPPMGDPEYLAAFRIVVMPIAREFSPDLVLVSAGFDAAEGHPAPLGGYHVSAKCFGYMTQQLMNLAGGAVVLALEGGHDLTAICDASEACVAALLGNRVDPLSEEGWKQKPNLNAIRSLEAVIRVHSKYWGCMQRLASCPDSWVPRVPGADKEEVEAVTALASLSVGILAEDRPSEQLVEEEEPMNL
Nature of the assay: HDAC inhibition assay, HDAC7.

For assay [7], the target named is T2, HDAC8 (Homo sapiens, UniProt Q9BY41).
T2 sequence (Q9BY41 1-377): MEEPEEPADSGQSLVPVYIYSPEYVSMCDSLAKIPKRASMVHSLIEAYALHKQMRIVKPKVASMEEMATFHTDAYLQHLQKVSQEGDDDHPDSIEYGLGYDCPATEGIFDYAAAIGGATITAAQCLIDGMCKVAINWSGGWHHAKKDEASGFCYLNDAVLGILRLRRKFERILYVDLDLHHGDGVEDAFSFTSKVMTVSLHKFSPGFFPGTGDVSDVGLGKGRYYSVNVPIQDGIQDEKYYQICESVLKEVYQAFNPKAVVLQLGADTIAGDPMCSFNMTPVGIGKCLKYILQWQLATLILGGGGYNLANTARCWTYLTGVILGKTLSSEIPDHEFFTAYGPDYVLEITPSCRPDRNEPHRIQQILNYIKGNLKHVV
The assay can be described thus: HDAC inhibition assay, HDAC8.

`NC(=NO)c1ccc2c(c1)N(Cc1ccc(C(=O)NO)c(-c3ccccc3)c1)c1ccccc1S2` [Compound 7g, N-Hydroxy-4-[2-(N’-hydroxycarbamimidoyl)-10H-phenothiazin-10-yl]methyl-2-phenylbenzamide]: in assay [1], the “SPR binding to HDAC4 protein” value is “can bind to HDAC4 protein”. For the same compound, the IC50 was determined as 3 ± 0.3 µM in assay [2], 5.8 ± 0.3 µM in assay [3], 0.19 ± 0.04 µM in assay [6] and 1.95 µM in assay [7]. The apoptosis rate in assay [4] (1 µM) amounted to 29.2%; in assay [4] (2.5 µM) it was 35.9%; in assay [4] (5 µM), 44.4%; in assay [4] (7.5 µM) it was 78.2%; in assay [4] (10 µM), 87.1%. In addition, in assay [4] (10 µM, 24 h), the “percentage of apoptotic cells” value was found to be 83.6%. Moreover, in assay [5], the ROS generation entry is listed as “increased”.
